From patent US7713994B2 (Wyeth LLC, priority 2005, dated 2010)
pIC50: −log10 of the molar value. Read-outs that look alike come from different tables or passages of the source.

Tests used:
[1] = tested on: BT474; experiment: Cytotoxicity assay (SRB), BT474; format: cell-based
In short: (§1)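 Protein staining with sulforhodamine B after cold TCA fixation served as the survival endpoint (A540, relative to untreated cells). Before staining, cells were incubated with compound at 37 °C, 7% CO2 for 3 days, or 6 days for BT474.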

[2] = tested on: MCF-7; experiment: Cytotoxicity assay (SRB), MCF-7; format: cell-based; conditions: Homo sapiens, MCF7, 72 h, MCF-7 cells, SRB, read-out: In Vitro Cellular Activity IC50 MCF-7
In short: as §1

[3] = tested on: HCT-116; experiment: Cytotoxicity assay (SRB), HCT-116; format: cell-based; conditions: Homo sapiens, HCT-116, 72 h, HCT116 cells, SRB, read-out: In Vitro Cellular Activity IC50 HCT116
In short: as §1

[4] = tested on: LoVo; experiment: Cytotoxicity assay (SRB), LoVo; format: cell-based; conditions: Homo sapiens, LoVo, 72 h, LoVo cells, SRB, read-out: In Vitro Cellular Activity IC50 LOVO
In short: as §1

[5] = Homo sapiens, BT-474, 144 h, BT474 cells, SRB, 6 days; read-out: In Vitro Cellular Activity IC50 BT474
[6] = Homo sapiens, BT-474, 144 h, BT474 cells, 6 days, SRB; read-out: In Vitro Cellular Activity IC50 BT474

| melting point | SMILES | pIC50 [1, 5] | pIC50 ([2]; three days) | pIC50 ([3]; three days) | pIC50 ([4]; three days) | pIC50 [1, 6] | pIC50 ([2]; 3 days) | pIC50 ([3]; 3 days) | pIC50 ([4]; 3 days) |
| --- | --- | --- | --- | --- | --- | --- | --- | --- | --- |
| 222 to 223 °C | CCOC(=O)C1(C(=O)OCC)Oc2ccc(CN/C=C3\C(=O)NC(=O)c4ccc(Br)cc43)cc2O1 [Example 179, (Z)-Diethyl 5-(((6-bromo-1,3-dioxo-2,3-dihydroisoquinolin-4(1H)-ylidene)methylamino)methyl)benzo[d][1,3]dioxole-2,2-dicarboxylate] | 4.77 | 4.52 | 4.47 | 4.70 | – | – | – | – |
| 200 to 201 °C | COC[C@H]1CCCN1Cc1ccc(N/C=C2\C(=O)NC(=O)c3ccc(-c4ccc(OC(C)C)cc4)cc32)cc1 [Example 300, (4Z)-6-(4-Isopropoxyphenyl)-4-{[(4-{[(2R)-2-(methoxymethyl)pyrrolidin-1-yl]methyl}phenyl)amino]methylene}isoquinoline-1,3(2H,4H)-dione] | 4.77 | 5.06 | 5.51 | 4.59 | – | – | – | – |
| 290 to 291 °C | Cc1nn(-c2ccc(NC=C3C(=O)NC(=O)c4ccc(Br)cc43)cc2)c(C)c1Cl [Example 348, 6-Bromo-4-{[4-(4-chloro-3,5-dimethyl-pyrazol-1-yl)-phenylamino]-methylene}-4H-isoquinoline-1,3-dione] | 5.21 | 5.29 | 5.59 | 5.74 | – | – | – | – |
| 278 to 280 °C | O=C1NC(=O)c2ccc(Br)cc2/C1=C/NCCc1c[nH]c2ccccc12 [Example 43, (4Z)-6-Bromo-4-({[2-(1H-indol-3-yl)ethyl]amino}methylene)isoquinoline-1,3(2H,4H)-dione] | 4.39 | < 4.30 | 4.59 | < 4.30 | – | – | – | – |
| 226 to 227 °C | COc1ccc(CN/C=C2\C(=O)NC(=O)c3ccc(Br)cc32)cc1OC(C)=O [Example 57, 5-({[(Z)-(6-Bromo-1,3-dioxo-2,3-dihydroisoquinolin-4(1H)-ylidene)methyl]amino}methyl)-2-methoxyphenyl acetate] | 5.43 | < 4.30 | 5.02 | 5.28 | – | – | – | – |
| > 300 °C | CN1CCN(C(=O)Nc2ccc(N/C=C3\C(=O)NC(=O)c4ccc(Br)cc43)cc2)CC1 [Example 215, N-(4-{[(Z)-(6-Bromo-1,3-dioxo-2,3-dihydroisoquinolin-4(1H)-′ylidene)methyl]amino}phenyl)-4-methylpiperazine-1-carboxamide] | 5.13 | 5.15 | 5.35 | 5.19 | – | – | – | – |
| 245 to 246 °C | O=C1NC(=O)c2ccc(Br)cc2/C1=C/NCc1ccc(NC(=O)C2CC2)c(OC(=O)C2CC2)c1 [Example 185, 5-({[(Z)-(6-Bromo-1,3-dioxo-2,3-dihydroisoquinolin-4(1H)-′cyclopropanecarboxylate ′ylidene)methyl]amino}methyl)-2-[(cyclopropylcarbonyl)amino]phenyl] | 6.06 | < 4.30 | 5.55 | 5.57 | – | – | – | – |
| 211 to 212 °C | CCCOc1ccc(CN/C=C2\C(=O)NC(=O)c3ccc(Br)cc32)cc1OC(=O)OC [Example 191, 5-({[(Z)-(6-Bromo-1,3-dioxo-2,3-dihydroisoquinolin-4(1H)-ylidene)methyl]amino}-methyl)-2-propoxyphenyl methyl carbonate] | 5.24 | < 4.30 | 4.46 | < 4.30 | – | – | – | – |
| 175 to 176 °C | CN1CCN(c2ccc(N/C=C3\C(=O)NC(=O)c4ccc(C#CCOC5CCCCO5)cc43)cc2)CC1 (stereo not drawn) [Example 161, (4Z)-4-({[4-(4-Methylpiperazin-1-yl)phenyl]amino}methylene)-6-[3-(tetrahydro-2H-pyran-2-yloxy)prop-1-ynyl]isoquinoline-1,3(2H,4H)-dione] | 5.47 | 5.40 | 5.66 | 5.19 | – | – | – | – |
| 251 to 253 °C (dec.) | CCCOc1ccc(CN/C=C2\C(=O)NC(=O)c3ccc(I)cc32)nc1Br [Example 493, (Z)-4-(((6-Bromo-5-propoxypyridin-2-yl)methylamino)methylene)-6-iodoisoquinoline-1,3(2H,4H)-dione] | – | – | – | – | 4.96 | 4.99 | 5.33 | 5.03 |
| 142 to 143 °C | CN1CCN(c2ccc(NC=C3C(=O)NC(=O)c4ccc(OCCN5CCOCC5)cc43)cc2)CC1 [Example 155, 4-{[4-(4-Methyl-piperazin-1-yl)-phenylamino]-methylene}-6-(2-morpholin-4-yl-ethoxy)-4H-isoquinoline-1,3-dione] | 4.66 | 4.59 | 4.77 | 4.72 | – | – | – | – |
| 223 to 224 °C | CC(C)N1CCN(c2ccc(N/C=C3\C(=O)NC(=O)c4ccc(Br)cc43)nc2)CC1 [Example 486, (4Z)-6-Bromo-4-({[5-(4-isopropylpiperazin-1-yl)pyridin-2-yl]amino}methylene)isoquinoline-1,3(2H,4H)-dione] | – | – | – | – | 5.44 | 5.00 | 5.13 | 5.12 |
| 224 to 225 °C | O=C1NC(=O)c2ccc(Br)cc2/C1=C/Nc1ccc(CN2CCSC2)cc1 [Example 281, (4Z)-6-Bromo-4-({[4-(1,3-thiazolidin-3-ylmethyl)phenyl]amino}methylene)isoquinoline-1,3(2H,4H)-dione] | 4.35 | 4.72 | 4.70 | 4.92 | – | – | – | – |
| 168 to 169 °C | C[C@@H]1CN(c2ccc(N/C=C3\C(=O)NC(=O)c4ccc(Br)cc43)cc2F)C[C@H](C)N1 [Example 318, (4Z)-6-Bromo-4-[({4-[(3R,5S)-3,5-dimethylpiperazin-1-yl]-3-fluorophenyl}amino)methylene]isoquinoline-1,3(2H,4H)-dione] | 5.72 | 5.60 | 5.89 | 5.82 | – | – | – | – |
| 132 to 133 °C | O=C1NC(=O)c2ccc(-c3ccc(Oc4ccccc4)cc3)cc2/C1=C/Nc1ccc(CN2CCCCC2)cc1 [Example 101] | 5.54 | 5.49 | 5.92 | 5.37 | – | – | – | – |
| 274 to 276 °C | COc1cc2c(cc1Br)/C(=C/Nc1ccc(N3CCN(C)CC3)cc1)C(=O)NC2=O [Example 242, 6-Bromo-7-methoxy-4-{[4-(4-methyl-piperazin-1-yl)-phenylamino]-methylene}-4H-isoquinoline-1,3-dione] | 5.49 | 5.28 | 5.68 | 5.35 | – | – | – | – |
| 206 to 207 °C | CCCOc1ccc(CN/C=C2\C(=O)NC(=O)c3ccc(Br)cc32)cc1OC(=O)CC [Example 190, 5-({[(Z)-(6-Bromo-1,3-dioxo-2,3-dihydroisoquinolin-4(1H)-ylidene)methyl]amino}-methyl)-2-propoxyphenyl propionate] | 5.85 | < 4.30 | 5.03 | 4.89 | – | – | – | – |
| 135 to 136 °C | COC[C@H]1CCCN1c1ccc2c(c1)/C(=C/Nc1ccc(CN3CCCCC3)cc1)C(=O)NC2=O [Example 121, (4Z)-6-[(2R)-2-(Methoxymethyl)pyrrolidin-1-yl]-4-({[4-(piperidin-1-ylmethyl)phenyl]amino}methylene)isoquinoline-1,3(2H,4H)-dione] | 5.11 | 5.34 | 5.26 | 5.42 | – | – | – | – |
